65 molecules from patent US10899747B2, “Biaryl piperidine amide compounds and methods of use thereof” (Athenex, Inc., priority 2017, dated 2021) can be followed below.

The structures appear in SMILES notation. pIC50: −log10 of the molar value.

The experiment concerns IL-2. The experiment is described as follows: PHA-IL2 (cell activation and cytokine analysis). The class given is cell-based. The note with it: 50% inhibition concentration class. Here is the method: Cells to be tested may include, but are not limited to, a) Jurkat (a transformed human T cell leukemia), b) whole blood isolated from human or rodent sources, c) peripheral blood mononuclear cells (PBMC) freshly isolated from human or rodent whole blood, or d) purified fractions of PBMC (e.g., CD4 T cells). Cells are plated in 96-well plates at a final density of 1.0-2.0×10^6 cells/ml in 150 ul of assay medium (RPMI+0.5% fetal calf serum). Test compounds are included at a final concentration of ≤20 uM and generally pre-incubated with cells for 30 minutes prior to stimulation. An appropriate stimulus is added, including but not limited to, a) phytohemagglutinin (PHA), b) phorbol myristate acetate (PMA) and ionomycin, or c) stimulatory antibodies to the T cell receptor (TCR) complex (e.g., anti-CD3ε) and CD28. Cell cultures are stimulated for 24-48 hours in a humidified incubator (37 degrees C./5% CO2). A fraction of the culture supernatant is than harvested from each well and assayed for the presence of appropriate cytokine using standard ELISA. Cytokines to be analyzed may include IL-2, IL-4, IL-10, IL-17, IL-22, IFNγ, and/or TNFα. If required, the number of cytokine producing cells can be determined using intracellular staining and flow cytometry. […]
Broadly, the pIC50 is −log10 of the IC50, conventionally taken in molar units. Low readings indicate a high IC50, high ones a low IC50. As to `O=C(COc1ccccc1-c1ccc(-c2ccccc2)cc1)N1CCC(CCc2ccc3c(c2)OCO3)CC1` [Compound 218], the negative-log IC50 (pIC50) was 5.00 to 6.00.

Turning to `O=C(CCc1ccccc1-c1ccccc1)N1CCC(CCc2ccc3c(c2)OCO3)CC1` [Compound 219], the pIC50 was 4.30 to 5.00.

`O=C(CCc1ccccc1-c1ccccc1)N1CCC(CCc2cc(F)cc(F)c2)CC1` [Compound 220] gave a pIC50 of 4.30 to 5.00.

In turn, `COc1cccc(CCC2CCN(C(=O)CCc3ccccc3-c3ccccc3)CC2)c1` [Compound 221] gave a negative logarithm of the IC50 (pIC50) of 4.30 to 5.00. Molecule `O=C(CCc1ccccc1-c1ccc(F)cc1)N1CCC(CCc2ccc3c(c2)OCO3)CC1` [Compound 222] showed a pIC50 of 5.00 to 6.00. On to `O=C(CCc1ccccc1-c1ccc(F)cc1)N1CCC(CCc2cc(F)cc(F)c2)CC1` [Compound 223], for which the pIC50 was 5.00 to 6.00.

As to `COc1cccc(CCC2CCN(C(=O)CCc3ccccc3-c3ccc(F)cc3)CC2)c1` [Compound 224], the pIC50 was 5.00 to 6.00. Turning to `N#Cc1ccc(-c2ccccc2CCC(=O)N2CCC(CCc3ccc4c(c3)OCO4)CC2)cc1` [Compound 225], the pIC50 is 5.00 to 6.00. `N#Cc1ccc(-c2ccccc2CCC(=O)N2CCC(CCc3cc(F)cc(F)c3)CC2)cc1` [Compound 226] gave a pIC50 of 5.00 to 6.00. Molecule `COc1cccc(CCC2CCN(C(=O)CCc3ccccc3-c3ccc(C#N)cc3)CC2)c1` [Compound 227] showed a pIC50 of 5.00 to 6.00. The molecule `O=C(COc1ccccc1-c1ccccc1CN1CCOCC1)N1CCC(CCc2ccc3c(c2)OCO3)CC1` [Compound 228] showed a pIC50 of 5.00 to 6.00. Regarding `Cc1cccc(-c2ccccc2)c1OC(C)C(=O)N1CCC(CCc2cc(F)cc(F)c2)CC1` (centres unmarked) [Compound 229], the negative logarithm of the IC50 (pIC50) is 5.00 to 6.00. In turn, `O=C(COc1ccccc1-c1ccc(F)cc1)N1CCC(CCc2ccc3c(c2)OCCCO3)CC1` [Compound 230] showed a pIC50 greater than 6.00.

Molecule `N#Cc1ccc(-c2ccccc2OCC(=O)N2CCC(CCc3ccc4c(c3)OCCCO4)CC2)cc1` [Compound 231] gave a pIC50 greater than 6.00. For `O=C(COc1ccccc1-c1ccccc1O)N1CCC(CCc2ccc3c(c2)OCCCO3)CC1` [Compound 233] the value was greater than 6.00. As to `COc1ccc(CCC2CCN(C(=O)C(C)Oc3c(C)cccc3-c3ccccc3)CC2)cc1` (centres unmarked) [Compound 234], the pIC50 was 5.00 to 6.00. Regarding `COc1cccc(CCC2CCN(C(=O)C(C)Oc3c(C)cccc3-c3ccccc3)CC2)c1` (centres unmarked) [Compound 235], the pIC50 was greater than 6.00.

As to `O=C(COc1ccccc1-c1ccc(F)cc1F)N1CCC(CCc2ccc3c(c2)OCO3)CC1` [Compound 236], the pIC50 is 4.30 to 5.00. With `O=C(COc1ccccc1-c1ccc(C(F)(F)F)cc1F)N1CCC(CCc2ccc3c(c2)OCO3)CC1` [Compound 237], the pIC50 is greater than 6.00. As for `COc1ccc(F)c(-c2ccccc2OCC(=O)N2CCC(CCc3ccc4c(c3)OCO4)CC2)c1` [Compound 238], the pIC50 is greater than 6.00. `Cc1ccc(F)c(-c2ccccc2OCC(=O)N2CCC(CCc3ccc4c(c3)OCO4)CC2)c1` [Compound 239] had a pIC50 greater than 6.00. `O=C(COc1ccccc1-c1ccc(Cl)cc1Cl)N1CCC(CCc2ccc3c(c2)OCO3)CC1` [Compound 240] gave a pIC50 of 5.00 to 6.00. `COc1cccc(-c2ccccc2OCC(=O)N2CCC(CCc3ccc4c(c3)OCO4)CC2)c1OC` [Compound 241] had a pIC50 greater than 6.00. `COc1c(F)cc(F)cc1-c1ccccc1OCC(=O)N1CCC(CCc2ccc3c(c2)OCO3)CC1` [Compound 242]: the pIC50 is 5.00 to 6.00. Consider `CC(C)Oc1cccc(-c2ccccc2OCC(=O)N2CCC(CCc3ccc4c(c3)OCO4)CC2)c1` [Compound 243], for which the pIC50 is 5.00 to 6.00. Molecule `CCCOc1cccc(-c2ccccc2OCC(=O)N2CCC(CCc3ccc4c(c3)OCO4)CC2)c1` [Compound 244] showed a pIC50 of 5.00 to 6.00. `CC(C)COc1cccc(-c2ccccc2OCC(=O)N2CCC(CCc3ccc4c(c3)OCO4)CC2)c1` [Compound 245]: the pIC50 is 5.00 to 6.00.

Consider `CCCCOc1cccc(-c2ccccc2OCC(=O)N2CCC(CCc3ccc4c(c3)OCO4)CC2)c1` [Compound 246], for which the pIC50 is 5.00 to 6.00. `O=C(COc1ccccc1-c1ccncc1)N1CCC(CCc2ccc3c(c2)OCO3)CC1` [Compound 247] gave a pIC50 of 5.00 to 6.00. `Cc1cc(F)ncc1-c1ccccc1OCC(=O)N1CCC(CCc2ccc3c(c2)OCO3)CC1` [Compound 248]: the pIC50 was 4.30 to 5.00. Molecule `O=C(COc1ccccc1-c1ccc2[nH]ncc2c1)N1CCC(CCc2ccc3c(c2)OCO3)CC1` [Compound 249] showed a pIC50 greater than 6.00. In the case of `C#Cc1ccc(-c2ccccc2OCC(=O)N2CCC(CCc3ccc4c(c3)OCO4)CC2)cc1` [Compound 250], the pIC50 was greater than 6.00. In turn, `N#Cc1ccc(-c2ccccc2OCC(=O)N2CCC(CCc3ccc4c(c3)OCO4)CC2)c(F)c1` [Compound 251] gave a pIC50 greater than 6.00. The figure for `Nc1ccc(/C=C/C2CCN(C(=O)COc3ccccc3-c3ccccc3)CC2)cn1` [Compound 252] is 4.30 to 5.00; for `O=C(COc1ccccc1-c1ccccc1)N1CCC(/C=C/c2ccc3c(c2)OCO3)CC1` [Compound 253] it is greater than 6.00. The figure for `O=C1COc2ccc(CCC3CCN(C(=O)COc4ccccc4-c4ccccc4)CC3)cc2N1` [Compound 254] is 5.00 to 6.00; for `Nc1ccc(CCC2CCN(C(=O)COc3ccccc3-c3ccccc3)CC2)cn1` [Compound 255] it is 5.00 to 6.00; for `CC1Oc2ccc(CCC3CCN(C(=O)COc4ccccc4-c4ccccc4)CC3)cc2OC1C` (centres unmarked) [Compound 256] it is greater than 6.00. The molecule `N#Cc1ccc(-c2ccccc2OCC(=O)N2CCC(CCc3ccc4c(c3)NC(=O)CO4)CC2)cc1` [Compound 257] showed a pIC50 of 5.00 to 6.00.

In turn, `O=C1COc2ccc(CCC3CCN(C(=O)COc4ccccc4-c4ccc(F)cc4)CC3)cc2N1` [Compound 258] had a pIC50 of 5.00 to 6.00. For `O=C1COc2ccc(CCC3CCN(C(=O)COc4ccccc4-c4ccc(Cl)nc4)CC3)cc2N1` [Compound 259] the value was greater than 6.00; for `O=C(C1CC1c1cc2c(cc1-c1ccccc1)OCO2)N1CCC(CCc2ccc3c(c2)OCO3)CC1` (centres unmarked) [Compound 260], greater than 6.00. The figure for `O=C(COc1ccccc1-c1ccccc1)N1CCC(CCCc2ccccc2)CC1` [Compound 261] is 5.00 to 6.00; for `Cc1cc(F)ccc1-c1ccccc1OCC(=O)N1CCC(CCc2ccc3c(c2)OCO3)CC1` [Compound 262] it is 5.00 to 6.00; for `CC1Oc2ccc(CCC3CCN(C(=O)COc4ccccc4-c4ccc(C#N)cc4)CC3)cc2OC1C` (centres unmarked) [Compound 263] it is greater than 6.00. The figure for `CC1Oc2ccc(CCC3CCN(C(=O)COc4ccccc4-c4ccc(F)cc4)CC3)cc2OC1C` (centres unmarked) [Compound 264] is greater than 6.00; for `CC1Oc2ccc(CCC3CCN(C(=O)COc4ccccc4-c4ccc(Cl)nc4)CC3)cc2OC1C` (centres unmarked) [Compound 265] it is greater than 6.00. Take `O=C(COc1ccccc1-c1ccc(F)nc1)N1CCC(CCc2ccc3c(c2)OCCCO3)CC1` [Compound 266]: the pIC50 was greater than 6.00. As for `O=C(COc1ccccc1-c1ccc2[nH]ncc2c1)N1CCC(CCc2ccc3c(c2)OCCCO3)CC1` [Compound 267], the pIC50 was greater than 6.00. The molecule `CC1Oc2ccc(CCC3CCN(C(=O)COc4ccccc4-c4ccc5[nH]ncc5c4)CC3)cc2OC1C` (centres unmarked) [Compound 268] had a pIC50 greater than 6.00. Consider `N#Cc1ccc(-c2ccccc2OCC(=O)N2CCC(CCc3ccccc3)CC2)cc1` [Compound 269], for which the pIC50 was greater than 6.00. `O=C(COc1ccccc1-c1ccc(F)cc1)N1CCC(CCc2ccccc2)CC1` [Compound 270] showed a pIC50 of 5.00 to 6.00.

In turn, `O=C(COc1ccccc1-c1ccc(Cl)nc1)N1CCC(CCc2ccccc2)CC1` [Compound 271] had a pIC50 greater than 6.00. The figure for `O=C(COc1ccccc1-c1ccc2[nH]ncc2c1)N1CCC(CCc2ccccc2)CC1` [Compound 272] is greater than 6.00; for `CCc1ccc(OCC(=O)N2CCC(CCc3ccc4c(c3)OCO4)CC2)c(-c2ccc(F)cc2)c1` [Compound 273] it is 5.00 to 6.00; for `CCc1ccc(OCC(=O)N2CCC(CCc3ccc4c(c3)OCO4)CC2)c(-c2ccc(C#N)cc2)c1` [Compound 274] it is 5.00 to 6.00. Molecule `CCc1ccc(OCC(=O)N2CCC(CCc3ccc4c(c3)OCO4)CC2)c(-c2ccc(Cl)nc2)c1` [Compound 275] gave a pIC50 of 5.00 to 6.00. Regarding `CCc1ccc(OCC(=O)N2CCC(CCc3ccc4c(c3)OCO4)CC2)c(-c2ccccc2)c1` [Compound 276], the pIC50 is greater than 6.00. Regarding `CCc1ccc(OCC(=O)N2CCC(CCc3ccc4c(c3)OCO4)CC2)c(-c2ccc3[nH]ncc3c2)c1` [Compound 277], the pIC50 is greater than 6.00. Take `CC1Oc2ccc(CCC3CCN(C(=O)COc4ccccc4-c4ccccc4O)CC3)cc2OC1C` (centres unmarked) [Compound 278]: the pIC50 was greater than 6.00. The figure for `N#Cc1ccc(-c2ccccc2OCC(=O)N2CCC(CCc3ccc(O)cc3)CC2)cc1` [Compound 279] is greater than 6.00. The molecule `O=C(COc1ccccc1-c1ccc(F)cc1)N1CCC(CCc2ccc(O)cc2)CC1` [Compound 280] showed a pIC50 greater than 6.00. The figure for `O=C(COc1ccccc1-c1ccc2[nH]ncc2c1)N1CCC(CCc2ccc(O)cc2)CC1` [Compound 281] is greater than 6.00; for `O=C(COc1ccccc1-c1ccccc1O)N1CCC(CCc2ccc(O)cc2)CC1` [Compound 282] it is greater than 6.00; for `O=C(COc1ccccc1-c1ccc(Cl)nc1)N1CCC(CCc2ccc(O)cc2)CC1` [Compound 283] it is greater than 6.00.
